Test results published in article PMC11280325, “Design, Synthesis, and Characterization of Novel Thiazolidine-2,4-Dione-Acridine Hybrids as Antitumor Agents” (Molecules, 2024).

Experiments:
A549 = assay: MTT assay, A549; format: cell-based, human; conditions: lung adenocarcinoma, 48 h incubation
Method: (§1) The human cancer cell lines HeLa (cervical adenocarcinoma), HCT116 (colorectal adenocarcinoma), A2780 (human ovarian adenocarcinoma), A2780cis (human ovarian adenocarcinoma cisplatin-resistant), Jurkat (acute T-lymphoblastic leukemia), and Hep G2 (hepatocellular carcinoma) were cultured in an RPMI 1640 growth medium (Biosera, Kansas City, MO, USA). The cancer cell lines MDA-MB-231 (triple-negative breast adenocarcinoma), A2058 (human melanoma), U87 (human glioblastoma), PATU 8902 (pancreas adenocarcinoma), and A549 (human lung adenocarcinoma) were cultured in a DMEM medium (Biosera, Kansas City, MO, USA). The media were supplemented with 10% fetal bovine serum (FBS) (Invitrogen, Carlsbad, CA, USA) and 1× HyClone™ Antibiotic/Antimycotic Solution (GE Healthcare, Piscataway, NJ, USA).
(§2) To evaluate the IC50 (half-maximal inhibitory concentration) and confirm the antiproliferative activity of the tested substances, we employed the colorimetric MTT assay (3-(4,5-dimethylthiazol-2-yl)-2,5-diphenyltetrazolium bromide) (Sigma-Aldrich Chemie, Steinheim, Germany). The cell lines were seeded in 96-well plates at a density of 5 × 10^3 to 10 × 10^3 cells per well. After 24 h, the tested substances, dissolved in the cultivation medium, were added to the cells at final concentrations of 5, 10, 20, and 50 µmol/L. The cells were then incubated for 48 h under standard cultivation conditions. Following the incubation period, MTT was added to each well. The MTT was metabolized by the cells into insoluble formazan crystals, which were subsequently dissolved by adding 100 µL of 10% SDS. After another 24 h, the absorbance was measured at a wavelength of 540 nm using the automated Cytation™ 3 Cell Imaging Multi-Mode Reader (Biotek, Winooski, VT, USA). The experiments were performed in at least three independent repetitions. IC50 values were calculated using a nonlinear regression method.

PATU = assay: MTT assay, PATU 8902; format: cell-based, human; conditions: pancreas adenocarcinoma, 48 h incubation
Method: as §1, §2

Hep G2 = assay: MTT assay, Hep G2; format: cell-based, human; conditions: Homo sapiens, HepG2, 48 h, hepatocellular carcinoma, 48 h incubation
Method: as §1, §2

Bj-5ta = assay: MTT assay, BJ-5ta non-cancerous fibroblasts; format: cell-based, human; conditions: Homo sapiens, Fibroblast, 48 h, non-cancerous dermal fibroblasts, 48 h incubation
Method: (§3) The non-cancerous cell line MCF-10A (human epithelial breast cells) was cultured in a DMEM F12 medium supplemented with 10% FBS (Invitrogen, Carlsbad, CA, USA), 1× HyClone™ Antibiotic/Antimycotic Solution (GE Healthcare, Piscataway, NJ, USA), insulin, hEGF, and hydrocortisone. The BJ-5ta cells (human dermal fibroblasts) were cultured in a DMEM-M199 4:1 medium mixture, supplemented with 10% FBS and hygromycin B (0.01 mg/mL). The cells were maintained under standard conditions with an atmosphere containing 5% CO2 at 37 °C. Cell viability, estimated by trypan blue exclusion, was consistently greater than 95% before each experiment.
as §2

HeLa = assay: MTT assay, HeLa; format: cell-based, human; conditions: cervical adenocarcinoma, 48 h incubation
Method: as §1, §2

HCT116 = assay: MTT assay, HCT116; format: cell-based, human; conditions: colorectal adenocarcinoma, 48 h incubation
Method: as §1, §2

MCF-10A = assay: MTT assay, MCF-10A non-cancerous cells; format: cell-based, human; conditions: non-cancerous epithelial breast cells, 48 h incubation
Method: as §3, §2

A2058 = assay: MTT assay, A2058; format: cell-based; conditions: Homo sapiens, A2058, 48 h, human melanoma, 48 h incubation
Method: as §1, §2

A2780 = assay: MTT assay, A2780; format: cell-based, human; conditions: Homo sapiens, A2780, 48 h, ovarian adenocarcinoma, 48 h incubation
Method: as §1, §2

SMILES	IC50 (A549; Homo sapiens, A549, 48 h)	IC50 (PATU; Homo sapiens, PaTu 8902, 48 h)	IC50 (Hep G2)	IC50 (Bj-5ta)	IC50 (HeLa; Homo sapiens, HeLa, 48 h)	IC50 (HCT116; Homo sapiens, HCT-116, 48 h)	melting point	IC50 (MCF-10A; Homo sapiens, MCF-10A, 48 h)	IC50 (A2058)	IC50 (A2780)	IC50 (HCT116)	IC50 (MCF-10A)	IC50 (PATU)	IC50 (HeLa)	IC50 (A549)
COc1cc(/C=C2\SC(=O)N(Cc3cccc4cc5ccccc5nc34)C2=O)ccc1OCC(=O)Nc1ccccc1 [Compound 13a, 2-(4-{[(5Z)-3-[(Acridin-4-yl)methyl]-2,4-dioxo-1,3-thiazolidin-5-ylidene]methyl}-2-methoxyphenoxy)-N-phenylacetamide]	> 50 µM	> 50 µM	> 50 µM	> 50 µM	41.9 ± 5.7 µM	> 50 µM	213 to 214 °C	> 50 µM	49.1 ± 0.85 µM	> 50 µM					
O=C(COc1ccc(/C=C2\SC(=O)N(Cc3c4ccccc4nc4ccccc34)C2=O)cc1)Nc1cc(C(F)(F)F)cc(C(F)(F)F)c1 [Compound 7g, 2-(4-{[(5Z)-3-[(Acridin-9-yl)methyl]-2,4-dioxo-1,3-thiazolidin-5-ylidene]methyl}phenoxy)-N-[3,5-bis(trifluoromethyl)phenyl]acetamide]	18.9 ± 3.85 µM	> 50 µM	> 50 µM	> 50 µM	20.9 ± 2.8 µM		227 to 228 °C (dec.)		> 50 µM	> 50 µM	18 ± 1.2 µM	> 50 µM			
O=C(COc1ccc(/C=C2\SC(=O)N(Cc3cccc4cc5ccccc5nc34)C2=O)cc1)Nc1ccc([N+](=O)[O-])cc1 [Compound 8d, 2-(4-{[(5Z)-3-[(Acridin-4-yl)methyl]-2,4-dioxo-1,3-thiazolidin-5-ylidene]methyl}phenoxy)-N-(4-nitrophenyl)acetamide]	> 50 µM	> 50 µM	> 50 µM	> 50 µM	44.9 ± 4.2 µM	47.6 ± 3.8 µM	> 300 °C (dec.)	> 50 µM	> 50 µM	> 50 µM					
O=C(COc1ccc(/C=C2\SC(=O)N(Cc3c4ccccc4nc4ccccc34)C2=O)cc1)Nc1ccccc1C(F)(F)F [Compound 7e, 2-(4-{[(5Z)-3-[(Acridin-9-yl)methyl]-2,4-dioxo-1,3-thiazolidin-5-ylidene]methyl}phenoxy)-N-[2-(trifluoromethyl)phenyl]acetamide]	> 50 µM		> 50 µM	> 50 µM			256 to 257 °C (dec.)	> 50 µM	> 50 µM	> 50 µM	22.3 ± 4.6 µM		> 50 µM	> 50 µM	
COc1cc(/C=C2\SC(=O)N(Cc3c4ccccc4nc4ccccc34)C2=O)ccc1OCC(=O)Nc1cc(OC)c(OC)c(OC)c1 [Compound 12c, 2-(4-{[(5Z)-3-[(Acridin-9-yl)methyl]-2,4-dioxo-1,3-thiazolidin-5-ylidene]methyl}-2-methoxyphenoxy)-N-(3,4,5-trimethoxyphenyl)acetamide]	> 50 µM	> 50 µM	> 50 µM	> 50 µM	19.9 ± 2.05 µM		268 to 269 °C	> 50 µM	> 50 µM	> 50 µM	15.1 ± 2 µM				
COc1cc(NC(=O)COc2ccc(/C=C3\SC(=O)N(Cc4c5ccccc5nc5ccccc45)C3=O)cc2)cc(OC)c1OC [Compound 7c, 2-(4-{[(5Z)-3-[(Acridin-9-yl)methyl]-2,4-dioxo-1,3-thiazolidin-5-ylidene]methyl}phenoxy)-N-(3,4,5-trimethoxyphenyl)acetamide]	> 50 µM	> 50 µM	> 50 µM	> 50 µM			248 to 249 °C		> 50 µM	> 50 µM	> 50 µM	14.5 ± 2.5 µM		6.8 ± 2.4 µM	
O=C(COc1ccc(/C=C2\SC(=O)N(Cc3c4ccccc4nc4ccccc34)C2=O)cc1)Nc1cccc(C(F)(F)F)c1 [Compound 7f, 2-(4-{[(5Z)-3-[(Acridin-9-yl)methyl]-2,4-dioxo-1,3-thiazolidin-5-ylidene]methyl}phenoxy)-N-[3-(trifluoromethyl)phenyl]acetamide]		11.5 ± 2.06 µM	28.1 ± 5.5 µM	32.6 ± 7.4 µM	6.2 ± 1.3 µM	8.8 ± 3.7 µM	250 to 251 °C (dec.)	9.8 ± 1.9 µM	> 50 µM	> 50 µM					16.4 ± 1.85 µM
COc1cc(NC(=O)COc2ccc(/C=C3\SC(=O)N(Cc4cccc5cc6ccccc6nc45)C3=O)cc2)cc(OC)c1OC [Compound 8c, 2-(4-{[(5Z)-3-[(Acridin-4-yl)methyl]-2,4-dioxo-1,3-thiazolidin-5-ylidene]methyl}phenoxy)-N-(3,4,5-trimethoxyphenyl)acetamide]	> 50 µM	> 50 µM	> 50 µM	> 50 µM	> 50 µM	> 50 µM	193 to 194 °C (dec.)	> 50 µM	> 50 µM	> 50 µM					
COc1cc(/C=C2\SC(=O)N(Cc3c4ccccc4nc4ccccc34)C2=O)ccc1OCC(=O)Nc1cc(C(F)(F)F)cc(C(F)(F)F)c1 [Compound 12g, 2-(4-{[(5Z)-3-[(Acridin-9-yl)methyl]-2,4-dioxo-1,3-thiazolidin-5-ylidene]methyl}-2-methoxyphenoxy)-N-[3,5-bis(trifluoromethyl)phenyl]acetamide]	> 50 µM	> 50 µM	> 50 µM	> 50 µM	20.7 ± 5.3 µM		287 to 288 °C	> 50 µM	> 50 µM	> 50 µM	6.7 ± 2 µM				
O=C(COc1ccc(/C=C2\SC(=O)N(Cc3cccc4cc5ccccc5nc34)C2=O)cc1)Nc1cccc(C(F)(F)F)c1 [Compound 8f, 2-(4-{[(5Z)-3-[(Acridin-4-yl)methyl]-2,4-dioxo-1,3-thiazolidin-5-ylidene]methyl}phenoxy)-N-[3-(trifluoromethyl)phenyl]acetamide]	> 50 µM	> 50 µM	> 50 µM	> 50 µM	27.7 ± 4.6 µM	25.1 ± 7.8 µM	219 to 220 °C (dec.)	> 50 µM	> 50 µM	> 50 µM					
COc1cc(NC(=O)COc2ccc(/C=C3\SC(=O)N(Cc4c5ccccc5nc5ccccc45)C3=O)cc2)cc(OC)c1 [Compound 7b, 2-(4-{[(5Z)-3-[(Acridin-9-yl)methyl]-2,4-dioxo-1,3-thiazolidin-5-ylidene]methyl}phenoxy)-N-(3,5-dimethoxyphenyl)acetamide]	34.6 ± 5.4 µM	> 50 µM	> 50 µM	> 50 µM	11.3 ± 2.75 µM	34.5 ± 2.98 µM	280 to 282 °C		> 50 µM	> 50 µM		28.8 ± 2.3 µM			
COc1cc(/C=C2\SC(=O)N(Cc3c4ccccc4nc4ccccc34)C2=O)ccc1OCC(=O)Nc1ccccc1C(F)(F)F [Compound 12e, 2-(4-{[(5Z)-3-[(Acridin-9-yl)methyl]-2,4-dioxo-1,3-thiazolidin-5-ylidene]methyl}-2-methoxyphenoxy)-N-[2-(trifluoromethyl)phenyl]acetamide]	31.1 ± 4.2 µM	> 50 µM	> 50 µM	> 50 µM			255 to 256 °C	> 50 µM	> 50 µM	> 50 µM	14.3 ± 1.8 µM			28.2 ± 3.7 µM	
